Like-named read-outs stand apart in the source and are kept apart here.
Tests used:
[1] = Population PK model of rifampicin plasma data, healthy subjects; assay type: in vivo, human; details: single 600-mg oral dose
Protocol: Individual plasma and urine data were obtained from a previous study in 12 healthy male subjects.6 The study was split into three occasions (OCC1–3) with a 7‐day washout period between OCC1 and 2 and OCC2 and 3. During each occasion, baseline CPI urine and plasma samples were collected (Figure S2). A single 600‐mg oral dose of RIF and a single 5‐mg oral dose of RSV were administered to the volunteers in OCC1 and OCC2, respectively. Finally, in OCC3 the same respective doses of RIF and RSV were coadministered to healthy volunteers. Plasma (RIF, RSV, and CPI) were collected at predefined timepoints over the 24‐h period following administration of RIF and/or RSV. Urine samples were collected over one time interval (−7 to 0 h) for the pretreatment sample (CPI monitored) and two subsequent intervals (0–7 h and 7–24 h) for posttreatment samples of CPI and RSV. The total number of plasma samples for modeling purposes were 276 (OCC1 = 144, OCC3 = 132), 420 (OCC1 = 144, OCC2 = 144, OCC3 = 132), and 264 (OCC2 = 132, OCC3 = 132) for RIF, CPI, and RSV, respectively, whereas the total number of urine samples were 102 (pretreatment = 34, posttreatment = 68) and 44 for CPI and RSV, respectively. No subjects enrolled in the clinical study had OATP1B1*5 or OATP1B1*15 mutations, associated with altered OATP1B1 activity.
Population PK models were developed sequentially for analysis of RIF, CPI, and RSV plasma and urine data using nonlinear mixed‐effects modeling software, NONMEM, with first‐order conditional estimation method.32 Statistical analysis, GOF plots, and other graphical analysis were conducted in MATLAB. The structural models for RIF and RSV (Supplementary Material) were selected based on population PK models available in the literature.34, 35 An exponential model was used to describe interindividual variability random‐effects parameters and IOV was evaluated for the model parameters; occasions were defined as periods of different visits following recruitment or washout periods. Covariates and random‐effects parameters (IIV and IOV) were retained in the models when there was a significant change in objective function and improvement in GOF plots. The incorporation of IIV and IOV in the models is shown in Equation 2: (2) θik=θ⋅e^ηi+κik where θ ik is the parameter for i^th individual on k^th occasion, θ is the population (typical individual) parameter, η i is the parameter that describes the deviation of the i^th individual parameter from the population (IIV), and k ik the parameter that describes the deviation of the i^th individual from the population in addition to η ik at the k^th occasion (IOV). Both random effect parameters (η ik and k ik) are assumed to be randomly distributed with a mean of zero and the variances are estimated during analysis. Proportional or additive or combination of proportional and additive residual error models were investigated for the residuals.
Based on a previously developed population PK model for RIF, a one compartment first order elimination model with transit absorption model was used to describe plasma concentrations of RIF (12). This model was parameterised using clearance (CL), volume of distribution (V), absorption rate constant (ka), mean transit time (MTT) and number of transit compartments (n). In order to account for the interaction between RIF and CPI and RIF and RSV, sequential analysis of plasma and urine data was conducted. […]

MRP2 = system: MRP2; parameters: method as in PMID 28325716; details: read-out: IC50, inhibition of MRP2 transport of CPI; cited from earlier work
[2] = system: OATP-mediated rosuvastatin uptake in human hepatocytes; test: Rifampicin inhibition of rosuvastatin uptake in plated human hepatocytes; assay type: cell-based; details: RSV 2 µM; no pre-incubation effect, same donor
Protocol: The in vitro IC50 for rifampicin was assessed using CPI and RSV as OATP probe substrates in plated human hepatocytes. Cryopreserved human hepatocytes (Donor QQE, BioreclamationIVT, Baltimore, MD) were thawed and plated at a density of 350,000 cells (1). After culturing for 4h, hepatocytes were washed twice with Dulbecco's phosphate-buffered saline and pre-incubated for an hour with either buffer or rifampicin (0.01-100µM). Following pre-incubation, the medium was replaced with CPI (0.30µM) or RSV (2µM) containing rifampicin (0-100µM). Incubations were stopped after 3 or 5 minutes (for RSV and CPI,respectively) using the washing protocol described previously (2). Monolayers were lysed with water and frozen overnight and then prepared for protein quantification (BCA assay) and LC-MS/MS analysis.
Lysate concentrations were used to demine uptake rates over a series of free RIF concentrations measured in the medium and plotted as a % of the control to estimate RIF IC50 (Main article Figure 5A and Figure S1). RIF IC50 was determined using equation 1, where U denotes the uptake rate (% vs control) at the free inhibitor concentration in the incubation [I] (µM); R, the range of inhibition; B, the un-inhibitable background (%), and S, the slope factor (GraFit v6).

OATP1B1 = details: cited from earlier work

For `CO[C@H]1/C=C/O[C@@]2(C)Oc3c(C)c(O)c4c(O)c(c(/C=N/N5CCN(C)CC5)c(O)c4c3C2=O)NC(=O)/C(C)=C\C=C\[C@H](C)[C@H](O)[C@@H](C)[C@@H](O)[C@@H](C)[C@H](OC(C)=O)[C@@H]1C` [rifampicin], the “CL, population estimate” value [1] was 3.97 L/h, the “MTT (mean transit time), population estimate” value [1] was 0.74 h and the “V, population estimate” value [1] was 24.7 L. The “n (number of transit compartments), population estimate” value [1] was 8.63, the “ka, population estimate” value ([1]; 12 healthy males) was 2.09 h⁻¹ and the IC50 (MRP2) was 83000 nM. The IC50 [2] was 1000 nM, the IC50 (OATP1B1; substrate Atorvastatin 1 µM, HEK, rifampicin 0.1-630 µM, ref (11)) was 2200 nM and the IC50 (OATP1B1; substrate BSP 0.01 µM, HEK, rifampicin 0.01-100 µM, ref (7)) was 2750 nM. The IC50 (OATP1B1; substrate Coproporphyrin I 0.1 µM, CHO, rifampicin 0.1-100 µM, ref (3)) was 3250 nM, the IC50 (OATP1B1; substrate Coproporphyrin I 0.2 µM, HEK, rifampicin 0.1-100 µM, ref (4)) was 660 nM and the IC50 (OATP1B1; substrate Coproporphyrin III 0.1 µM, CHO, rifampicin 0.1-100 µM, ref (3)) was 4610 nM. For the same molecule, the IC50 (OATP1B1; substrate Coproporphyrin III 0.2 µM, HEK, rifampicin 0.1-100 µM, ref (4)) was 790 nM, the IC50 (OATP1B1; substrate Fexofenadine 1 µM, HEK, rifampicin 0.01-100 µM, ref (10)) was 423 nM and the IC50 (OATP1B1; substrate GCDCA-S 1 µM, HEK, rifampicin 0.1-30 µM, ref (5)) was 390 nM. For the same molecule, the IC50 (OATP1B1; substrate Nateglinide 1 µM, HEK, rifampicin 0.01-100 µM, ref (10)) was 358 nM, the IC50 (OATP1B1; substrate Pitavastatin 0.1 µM, HEK, rifampicin 0.01-100 µM, ref (10)) was 1070 nM and the IC50 (OATP1B1; substrate Pitavastatin 0.1 µM, MDCKII, rifampicin 0.1-100 µM, ref (8)) was 1600 nM. The IC50 (OATP1B1; substrate Pravastatin 10 µM, HEK, rifampicin 0.01-100 µM, ref (10)) was 653 nM, the IC50 (OATP1B1; substrate Rosuvastatin 0.1 µM, HEK, ref (9)) was 1100 nM and the IC50 (OATP1B1; substrate Rosuvastatin 0.1 µM, MDCKII, rifampicin 0.1-100 µM, ref (8)) was 1100 nM. The IC50 (OATP1B1; substrate Rosuvastatin 1 µM, HEK, rifampicin 0.01-100 µM, ref (10)) was 952 nM, the IC50 (OATP1B1; substrate Valsartan 1 µM, HEK, rifampicin 0.01-100 µM, ref (10)) was 377 nM and the IC50 (OATP1B1; substrate [3H]-E1S 0.01 µM, HEK, rifampicin 0.01-100 µM, ref (7)) was 6960 nM. The IC50 (OATP1B1; substrate [3H]-E2G 0.1 µM, HEK, rifampicin 0.01-100 µM, ref (7)) was 585 nM.

Source: paper PMC6175062, “Gaining Mechanistic Insight Into Coproporphyrin I as Endogenous Biomarker for OATP1B‐Mediated Drug–Drug Interactions Using Population Pharmacokinetic Modeling and Simulation” (Clinical Pharmacology and Therapeutics, 2018)
